Measured values taken from ChEMBL document CHEMBL4825659, “Terpenoids from Chinese Liverworts Scapania spp” (J Nat Prod, 2021).
The source made the active and inactive calls. The rule behind the calls is not given here.

Key:
[1] = biological target: NAD(P)H dehydrogenase [quinone] 1 (Mus musculus) (UniProt Q64669); assay: Induction of quinone reductase activity in mouse Hepa1c1c7 cells at 50 uM incubated for 24 hrs by MTT based assay relative to control; type: cell-based
[2] = Cytotoxicity against mouse Hepa1c1c7 cells incubated for 24 hrs by MTT based assay; type: functional, cell-based; conditions: Hepa-1c1c7, 24 h

NAD(P)H dehydrogenase [quinone] 1 (Mus musculus), sequence (Q64669 whole entry): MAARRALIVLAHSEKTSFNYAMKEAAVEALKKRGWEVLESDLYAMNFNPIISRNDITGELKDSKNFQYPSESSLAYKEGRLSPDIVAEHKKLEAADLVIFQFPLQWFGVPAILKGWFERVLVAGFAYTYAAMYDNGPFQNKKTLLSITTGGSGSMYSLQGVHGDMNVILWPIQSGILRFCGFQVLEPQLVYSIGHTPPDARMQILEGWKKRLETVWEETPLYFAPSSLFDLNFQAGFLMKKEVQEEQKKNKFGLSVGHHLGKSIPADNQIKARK

Row | Activity ([1]; filed as activator) | Activity [1] | Structure (SMILES) | IC50 [2] [µM]
1 | Active | – | CC(=O)O[C@@H]1C[C@H](C)[C@@]2(C)C[C@@]3(C4=CC(=O)OC4O)OC[C@]14C2(CC[C@@H]1O[C@@]14C)O3 (some centres undefined) | > 50
2 | – | inactive | C[C@H]1C[C@H]2O[C@@]3(C)[C@@H](O)CCC45O[C@@](C6=CC(=O)OC6O)(C[C@]14C)OC[C@@]253 (some centres undefined) | > 50
3 | Active | – | CC(=O)O[C@@H]1C[C@H](C)[C@@]2(C)C[C@@]3(C4=CC(O)OC4=O)OC[C@]14C2(CC[C@@H]1O[C@@]14C)O3 (some centres undefined) | > 50
4 | – | inactive | CC(=O)O[C@@H]1C[C@H](C)[C@@]2(C)C[C@@]3(c4ccoc4)OC[C@]14C2(CC[C@@H]1O[C@@]14C)O3 | > 50
5 | Active | – | CO[C@]1(C2=CC(=O)OC2O)C[C@]2(C)[C@@H](C)C[C@@H](OC(C)=O)[C@]3(COC(C)=O)C2(CC[C@@H]2O[C@@]23C)O1 (some centres undefined) | > 50
6 | – | inactive | CC1(C)CC[C@@H](O)[C@]2(C)[C@@H]1C(=O)C[C@@]13C[C@H]4[C@@H](C(=O)[C@H]12)[C@]4(C)C3 | > 50
7 | – | inactive | C[C@H]1C[C@H]2O[C@@]3(C)[C@@H](O)CCC45O[C@@](c6ccoc6)(C[C@]14C)OC[C@@]253 | > 50
